What all share (assay type): ADME, organism-based
Holding throughout (settings): in vivo

Series [1] is described as follows: Tmax in healthy human (24 volunteers) at 500 mg, po test formulation of drug administered as single dose.
Series [2] is described as follows: Half life in healthy human (24 volunteers) at 500 mg, po test formulation of drug administered as single dose.
A short description of series [3]: Clearance in healthy human (24 volunteers) at 500 mg, po reference formulation of drug administered as single dose by two-compartmental open model.
The subject of series [4] is Homo sapiens. The series is described as follows: First order inter-compartment transfer rate constant from peripheral to central compartment in healthy human (24 volunteers) at 500 mg, po reference formulation of drug administered as single dose by two-compartmental open model.
Series [5] in a line: AUC (0 to infinity) in healthy human (24 volunteers) at 500 mg, po reference formulation of drug administered as single dose measured after 0.5 to 72 hrs. Details: dose 500 mg, time infinity, route oral.
Series [6] has as its system Homo sapiens. As to the kind of experiment: Ratio of AUC (0 to t) in healthy human (24 volunteers) at 500 mg, po test formulation of drug administered as single dose to AUC (0 to t) in healthy human (24 volunteers) at 500 mg, po reference formulation of drug administered as single dose.
For series [7], the system named is Homo sapiens. The series is described as follows: First order inter-compartment transfer rate constant from central to peripheral compartment in healthy human (24 volunteers) at 500 mg, po test formulation of drug administered as single dose by two-compartmental open model.
Series [8] concerns Homo sapiens. As to the kind of experiment: First order inter-compartment transfer rate constant from peripheral to central compartment in healthy human (24 volunteers) at 500 mg, po test formulation of drug administered as single dose by two-compartmental open model.
The subject of series [9] is Homo sapiens. The series is described as follows: Ratio of AUC (0 to infinity) in healthy human (24 volunteers) at 500 mg, po test formulation of drug administered as single dose to AUC (0 to t) in healthy human (24 volunteers) at 500 mg, po reference formulation of drug administered as single dose.
Series [10] is described as follows: AUC (0 to t) in healthy human (24 volunteers) at 500 mg, po reference formulation of drug administered as single dose measured after 0.5 to 72 hrs. Details: time upper 72 hr, dose 500 mg, time lower 0.5 hr, route oral.
Series [11] can be described thus: Tmax in healthy human (24 volunteers) at 500 mg, po reference formulation of drug administered as single dose.
Series [12] relates to Homo sapiens. As to the kind of experiment: Ratio of Cmax in healthy human (24 volunteers) at 500 mg, po test formulation of drug administered as single dose to Cmax in healthy human (24 volunteers) at 500 mg, po reference formulation of drug administered as single dose.
Series [13] concerns Homo sapiens. The series is described as follows: First order inter-compartment transfer rate constant from central to peripheral compartment in healthy human (24 volunteers) at 500 mg, po reference formulation of drug administered as single dose by two-compartmental open model.
A short description of series [14]: Cmax in healthy human (24 volunteers) at 500 mg, po test formulation of drug administered as single dose measured after 0.5 to 72 hrs. More on the design: dose 500 mg, route oral.
Series [15] can be described thus: Cmax in healthy human (24 volunteers) at 500 mg, po reference formulation of drug administered as single dose measured after 0.5 to 72 hrs. Details: dose 500 mg, route oral.
A short description of series [16]: Clearance in healthy human (24 volunteers) at 500 mg, po test formulation of drug administered as single dose by two-compartmental open model.
Series [17] can be described thus: Half life in healthy human (24 volunteers) at 500 mg, po reference formulation of drug administered as single dose.
The nature of series [18]: Elimination rate constant from central compartment in healthy human (24 volunteers) at 500 mg, po test formulation of drug administered as single dose by two-compartmental open model.
For series [19], the system named is Homo sapiens. As to the kind of experiment: Volume of distribution in healthy human (24 volunteers) at 500 mg, po reference formulation of drug administered as single dose by two-compartmental open model.
Series [20] relates to Homo sapiens. As to the kind of experiment: Volume of distribution in healthy human (24 volunteers) at 500 mg, po test formulation of drug administered as single dose by two-compartmental open model.
Series [21] is described as follows: AUC (0 to t) in healthy human (24 volunteers) at 500 mg, po test formulation of drug administered as single dose measured after 0.5 to 72 hrs. Details: time upper 72 hr, time lower 0.5 hr, dose 500 mg, route oral.
The nature of series [22]: AUC (0 to infinity) in healthy human (24 volunteers) at 500 mg, po test formulation of drug administered as single dose measured after 0.5 to 72 hrs. Details: dose 500 mg, route oral, time infinity.
A short description of series [23]: Elimination rate constant from central compartment in healthy human (24 volunteers) at 500 mg, po reference formulation of drug administered as single dose by two-compartmental open model.
The nature of series [24]: AUC (0 to infinity) in healthy human (24 volunteers) at 400 mg, po test formulation of drug administered as single dose measured after 0.5 to 10 hrs. More on the design: dose 400 mg, time infinity, route oral.
Series [25] is described as follows: Half life in healthy human (24 volunteers) at 400 mg, po reference formulation of drug administered as single dose.
The subject of series [26] is Homo sapiens. The series is described as follows: First order inter-compartment transfer rate constant from peripheral to central compartment in healthy human (24 volunteers) at 400 mg, po reference formulation of drug administered as single dose by two-compartmental open model.
The subject of series [27] is Homo sapiens. The series is described as follows: Volume of distribution in healthy human (24 volunteers) at 400 mg, po test formulation of drug administered as single dose by two-compartmental open model.
Series [28] in a line: Cmax in healthy human (24 volunteers) at 400 mg, po test formulation of drug administered as single dose measured after 0.5 to 10 hrs. Details: dose 400 mg, route oral.
Series [29] relates to Homo sapiens. The series is described as follows: First order inter-compartment transfer rate constant from central to peripheral compartment in healthy human (24 volunteers) at 400 mg, po reference formulation of drug administered as single dose by two-compartmental open model.
A short description of series [30]: Clearance in healthy human (24 volunteers) at 400 mg, po test formulation of drug administered as single dose by two-compartmental open model.
Series [31] in a line: Tmax in healthy human (24 volunteers) at 400 mg, po reference formulation of drug administered as single dose.
For series [32], the system named is Homo sapiens. As to the kind of experiment: Ratio of Cmax in healthy human (24 volunteers) at 400 mg, po test formulation of drug administered as single dose to Cmax in healthy human (24 volunteers) at 400 mg, po reference formulation of drug administered as single dose.
Series [33] can be described thus: Elimination rate constant from central compartment in healthy human (24 volunteers) at 400 mg, po reference formulation of drug administered as single dose by two-compartmental open model.
The subject of series [34] is Homo sapiens. The series is described as follows: Volume of distribution in healthy human (24 volunteers) at 400 mg, po reference formulation of drug administered as single dose by two-compartmental open model.
Series [35] can be described thus: AUC (0 to t) in healthy human (24 volunteers) at 400 mg, po test formulation of drug administered as single dose measured after 0.5 to 10 hrs. Details: time 0.5-10 hr, dose 400 mg, route oral.
For series [36], the system named is Homo sapiens. As to the kind of experiment: Ratio of AUC (0 to t) in healthy human (24 volunteers) at 400 mg, po test formulation of drug administered as single dose to AUC (0 to t) in healthy human (24 volunteers) at 400 mg, po reference formulation of drug administered as single dose.
Series [37] can be described thus: Clearance in healthy human (24 volunteers) at 400 mg, po reference formulation of drug administered as single dose by two-compartmental open model.
The nature of series [38]: AUC (0 to infinity) in healthy human (24 volunteers) at 400 mg, po reference formulation of drug administered as single dose measured after 0.5 to 10 hrs. Details: dose 400 mg, route oral, time infinity.
Series [39] can be described thus: AUC (0 to t) in healthy human (24 volunteers) at 400 mg, po reference formulation of drug administered as single dose measured after 0.5 to 10 hrs. Details: time lower 0.5 hr, dose 400 mg, time upper 10 hr, route oral.
A short description of series [40]: Half life in healthy human (24 volunteers) at 400 mg, po test formulation of drug administered as single dose.
The subject of series [41] is Homo sapiens. The series is described as follows: Ratio of AUC (0 to infinity) in healthy human (24 volunteers) at 400 mg, po test formulation of drug administered as single dose to AUC (0 to t) in healthy human (24 volunteers) at 400 mg, po reference formulation of drug administered as single dose.
Series [42] is described as follows: Tmax in healthy human (24 volunteers) at 400 mg, po test formulation of drug administered as single dose.
For series [43], the system named is Homo sapiens. As to the kind of experiment: First order inter-compartment transfer rate constant from peripheral to central compartment in healthy human (24 volunteers) at 400 mg, po test formulation of drug administered as single dose by two-compartmental open model.
A short description of series [44]: Cmax in healthy human (24 volunteers) at 400 mg, po reference formulation of drug administered as single dose measured after 0.5 to 10 hrs. Details: dose 400 mg, route oral.
Series [45] can be described thus: Elimination rate constant from central compartment in healthy human (24 volunteers) at 400 mg, po test formulation of drug administered as single dose by two-compartmental open model.
Series [46] concerns Homo sapiens. The series is described as follows: First order inter-compartment transfer rate constant from central to peripheral compartment in healthy human (24 volunteers) at 400 mg, po test formulation of drug administered as single dose by two-compartmental open model.

SMILES strings stand for the structures.

For orientation: Tmax means the time from dosing to the highest level. As usually defined, the half-life is how long it takes for the measured level to halve. In general, CL/F refers to the apparent clearance, not corrected for the fraction that reaches the circulation. A word on the AUC(0-inf): it is total exposure, with the tail of the curve extrapolated. Low values mean less exposure, high ones more exposure. As a reminder, the AUC(0-t) is the area under the concentration-time curve up to a stated or last time point. Low values mean low exposure, high ones high exposure. As a reminder, the Cmax is the peak of the concentration-time curve. With `CC[C@@H]1OC(=O)[C@H](C)[C@@H](O[C@@H]2C[C@](C)(OC)[C@H](O)[C@@H](C)O2)[C@@H](C)[C@@H](O[C@@H]2O[C@H](C)C[C@H](N(C)C)[C@H]2O)[C@](C)(O)C[C@@H](C)CN(C)[C@H](C)[C@@H](O)[C@]1(C)O`, the Tmax in series [1] worked out at 1.96 h; in series [11], 2.08 h. The half-life in series [2] is 25 h; in [17] it was 25.2 h. In addition, the CL/F in [3] was 103 mL/min/kg; in series [16], 139 mL/min/kg. The K with Homo sapiens [4] was 0.103 h⁻¹; in the series on Homo sapiens [7], 0.419 h⁻¹; in the series on Homo sapiens [8], 0.084 h⁻¹; with Homo sapiens [13], 0.405 h⁻¹. Further, the AUC(0-inf) turned out to be 8440 ng·h/mL in [5] and 7990 ng·h/mL in series [22]. For the same compound, the figures for the “Ratio AUC” value in the series on Homo sapiens [6] and in the series with Homo sapiens [9] were 0.95 and 0.96, respectively. Further, the AUC(0-t) in [10] is 8050 ng·h/mL; in series [21], 7580 ng·h/mL. Besides, the Ratio in the series on Homo sapiens [12] was 1. Further, the figures for the Cmax in [14] and in series [15] were 486 ng/mL and 488 ng/mL, respectively. The k el in series [18] is 2.5e-05 s⁻¹; in [23], 2.72e-05 s⁻¹. The Vd in the series with Homo sapiens [19] turned out to be 36.8 L/kg; in the series with Homo sapiens [20], 32.2 L/kg.
On to `CC[C@H]1OC(=O)[C@H](C)[C@@H](O[C@H]2C[C@@](C)(OC)[C@@H](O)[C@H](C)O2)[C@H](C)[C@@H](O[C@@H]2O[C@H](C)C[C@H](N(C)C)[C@H]2O)[C@](C)(O)C[C@@H](C)C(=O)[C@H](C)[C@@H](O)[C@]1(C)O` [ERYTHROMYCIN], for which the area under the curve AUC(0-inf) in [24] was 4850 ng·h/mL; in [38] it was 4790 ng·h/mL. Besides, the results for the half-life in series [25] and in series [40] were 3.61 h and 3.64 h, respectively. The K in the series on Homo sapiens [26] turned out to be 1.23 h⁻¹; in the series with Homo sapiens [29] it was 1.34 h⁻¹; with Homo sapiens [43], 0.415 h⁻¹; in the series on Homo sapiens [46] it was 2.26 h⁻¹. In addition, the values for the Vd with Homo sapiens [27] and in the series on Homo sapiens [34] were 10.4 L/kg and 8.8 L/kg, respectively. Also, the Cmax in series [28] was 1170 ng/mL; in series [44], 1120 ng/mL. Moreover, the values for the CL/F in series [30] and in series [37] were 225 mL/min/kg and 23.3 mL/min/kg, respectively. Besides, the Tmax in [31] is 1.38 h; in series [42], 1.4 h. Besides, the Ratio in the series with Homo sapiens [32] was found to be 1.07. In addition, the results for the k el in series [33] and in [45] were 0.000123 s⁻¹ and 0.000229 s⁻¹, respectively. The AUC(0-t) in series [35] amounted to 4020 ng·h/mL; in series [39], 4010 ng·h/mL. Moreover, the “Ratio AUC” value with Homo sapiens [36] came to 1.03; in the series on Homo sapiens [41] it was 1.04.

For the origin of these results see ChEMBL document CHEMBL3797119, “Pharmacokinetic Study of Two Macrolide Antibiotic Oral Suspensions Using an Optimized Bioassay Procedure” (J Bioequivalence Bioavailab, 2010).
